Laboratory results as given in publication PMC4171606, “A novel copper(I) complex induces ER-stress-mediated apoptosis and sensitizes B-acute lymphoblastic leukemia cells to chemotherapeutic agents” (Oncotarget, 2014).

Legend:
Assay type in all cases: cell-based, human
[1] = tested on: CD19+ cells from peripheral blood of healthy donors; test: MTT viability of healthy cells, 24 h
Description: (§1) CP growth inhibitory activity was measured on primary cultures derived from pediatric patients affected by B-acute lymphoblastic leukemia. […] In particular, in resting and in PHA-stimulated PBMC, and in CD19^+ cells GI50 was higher than 10 μM confirming that CP preferentially affects leukemia cells.
(§2) FIGURE 6 CP effects on B-ALL primary cultures (A) Blast cells from six B-ALL patients were incubated for 24 h with different concentrations of CP. For the sake of comparison CD19^+ cells from peripheral blood of healthy donors, and PBMC were also incubated with CP in the presence or absence of PHA. Cell viability were assayed by MTT analysis. Data are represented as mean ± S.E.M of four independent experiments. (B) Bone marrow cells from healthy donors were treated for 24 h with CP (2.5 μM and 5 μM). Cell viability was evaluated on the whole population by flow cytometry after staining the cells with Annexin-V-FITC and PI. are represented as mean ± S.E.M of 3 independent experiments. (C) Western Blot analysis of GRP78 and CHOP expression, PARP cleavage and caspase-3 activation, on protein extracts of blast cells from B-ALL patients treated with CP (2.5 μM) for 12 h.
(§3) Peripheral blood mononuclear cells (PBMC) and bone marrow cells from healthy donors were obtained by separation on Lymphoprep (Fresenius KABI, Norge AS) gradient. After extensive washing, cells were resuspended (1.0 × 10^6 cells/ml) in RPMI1640 with 10% fetal bovine serum and incubated overnight in 96-well tissue culture microtiter plate. For cytotoxicity evaluations in proliferating PBMC cultures, non-adherent cells were resuspended in growth medium, containing 2.5 μg/ml phytohematoglutinin (PHA) (Irvine Scientific). To isolate B-lymphocyte, PBMC obtained by Lymphoprep (Fresenius KABI, Norge AS) separation were labeled with anti-CD19-APC (BD Biosciences, Italy) and collected by cell sorting.

[2] = tested on: PHA-stimulated PBMC; test: MTT viability of healthy cells, 24 h
Description: as §1, §2, §3

[3] = tested on: resting PBMC; test: MTT viability of healthy cells, 24 h
Description: as §1, §2, §3

[4] = tested on: SEM and RS4;11 cells; test: Annexin-V-FITC/PI flow cytometry (apoptosis); details: CP 2.5 μM, both cell lines
Description: FIGURE 1 CP uptake and effects on cell cycle and apoptosis induction A) RS4;11, SEM, THP1, Jurkat cell lines and healthy PBMC were incubated with 6.25, 12.5 and 25 μM of CP for 24 h. The intracellular accumulation of CP was detected by GF-AAS analysis. B) SEM and RS4;11 cells were treated with the indicated concentrations of CP for 24 h, cell cycle distribution and Sub-G1 contents were analyzed by flow cytometry after cell staining with PI. The percentages of each phase of the cell cycle (G1, S, G2/M) were calculated on living cells whereas the percentages of cells with hypodiploid DNA content peak (subG1) was referred to cell population characterized by the appearance of subG1 peak. C) SEM and RS4;11 cells were incubated with 2.5 μM CP for the indicated times and analyzed by flow cytometry after double staining with Annexin-V-FITC and PI. Data are represented as mean ± S.E.M. of three independent experiments.
To characterize the mode of cell death induced by CP, we performed a cytofluorimetric analysis using PI and Annexin-V-FITC, which stain DNA and phosphatidylserine residues, respectively. After a time course of 1.5, 3, 6, 12 and 24 h of drug treatment (2.5 μM), SEM and RS4;11 cells were labeled with the two dyes and analyzed by flow cytometry. […]

[5] = tested on: CHOP; test: Western blot, ER stress marker CHOP; details: SEM and RS4;11, CP 2.5 μM
Description: Moreover we found an increase in CHOP expression starting from 3 h of CP treatment. […] Whilst GRP78, due to its chaperon activity, exerts a protective function, CHOP promotes ER-stress cell death, thus the rapid activation of pro-death signals and the late activation of pro-survival chaperone GRP78 could explain the commitment toward apoptosis induced by CP. Moreover, in unresolvable stress conditions, an increased CHOP expression has been correlated to the induction of the expression of many apoptotic genes and to the down-regulation prosurvival genes, such as Bcl-2 [30].
FIGURE 4 CP induces ER stress Western Blot analysis showing expression of GRP78 and CHOP in SEM (A) and in RS4;11 (B) cells. Cells were treated with CP 2.5 μM for the indicated times. (C) PCR analysis showing the induction of XBP1 splicing in SEM and RS4;11 cells. Cells were treated with CP (2.5 μM) or Tunicamycin (2 μg/ml) as positive control for 12 h.
Cells were treated with CP and, after different times, were collected, centrifuged and washed with ice cold phosphate-buffered saline (PBS). The pellet was then resuspended in lysis buffer as described. The protein concentration in the supernatant was determined using the BCA protein assay (Pierce, Italy). […]

For `F[P-](F)(F)(F)(F)F.OCP(CO)CO.OCP(CO)CO.OCP(CO)CO.OCP(CO)CO.[Cu+]` [CP, [Cu(thp)4][PF6]], the GI50 [1] was > 10 µM, the GI50 [2] was > 10 µM and the GI50 [3] was > 10 µM. The “onset of significant levels of Annexin-V positive cells” value [4] was ≥ 6 h and the “onset of increase in CHOP expression” value [5] was ≥ 3 h.
